Assay results from US20150005381A1, “METHOD FOR MODULATING STEM CELL GROWTH” (SUCAMPO AG, priority 2008, published 2015).

Experiments:
[1] = test system: nigro-striatal dopaminergic neurons of MPTP-treated mice; experiment: Effect on impaired dopaminergic neurons in MPTP-treated mice (TH immunostaining); format: in vivo, male C57BL/6 mice; settings: Day 8; for Area of TH-positive immunostained fibers in striatum, mean ± S.E. / TH-positive immunostained cells in substantia nigra, mean ± S.E.: MPTP-treated mice
Protocol: The effect of Compound A (11-deoxy-13,14-dihydro-15-keto-16,16-difluoro-PGE1) on impaired neuron was tested. 1-methyl-4-phenyl-1,2,3,6-tetrahydropyridine hydrochloride (MPTP) was intraperitoneally administered to male C57BL/6 mice aged 10 weeks at 15 mg/kg/dose 4 times a day with an approximately 3-hour interval between doses for 2 days (experimental Day 1 and Day 2) to destroy the dopaminergic neuron in the brain. On the day following the final MPTP administration (on Day 3), some MPTP-treated mice were sacrificed to estimate the severity of degeneration and loss of nigro-striatal dopamine neurons by measuring the area of tyrosine hydroxylase (TH)-positive immunostained fibers in striatum. Other MPTP-treated mice were orally administered Compound A (11-deoxy-13,14-dihydro-15-keto-16,16-difluoro-PGE1) or the vehicle twice a day for 5 days (from Day 3 to Day 7) starting from the day following the final MPTP administration. The mice were decapitated on the day following the final administration of Compound A or the vehicle (on Day 8), and the whole brain was removed by incision of the skull, and placed into Bouin's fluid (pH 3.5-4.0). The brain section at the level of striatum (0.74 mm anterior to bregma) and substantia nigra (3.08 mm posterior to bregma) was cut out. After dehydration, the paraffin embedding of the slices was employed. Sections (about 6 μm thick) were prepared out of each of the slices at Bregma 0.74 mm and Bregma −3.08 mm, and the sections were used for TH immunostaining. The number of TH-positive immunostained cells in the right substantia nigra compacta (SNC) at Bregma −3.08 mm was counted by visual observation using an optical microscope OLYMPUS BH-2 (Olympus Corp.) with a ×20 microscope objective. For measuring the area of TH-positive immunostained fibers in striatum, an image obtained with an optical microscope OLYMPUS BH-2 (Olympus Corp.) with a ×40 microscope objective of TH-positive immunostained fibers in the right caudate putamen (CPu) at Bregma 0.74 mm was incorporated into a computer through OLYMPUS MCD-350, and the area of TH-positive fibers larger than 5 μm^2 was measured using an image analyzer Win ROOF (V5.6, Mitani Corp.), and expressed in term of an area of 1 mm^2.

[2] = test system: full-thickness excisional wound in diabetic mice; experiment: Excisional wound healing in diabetic mice; format: in vivo, female diabetic (BKS.Cg-+Lepr^db/+Lepr^db/Jcl) mice; settings: ointment, Table 3
Protocol: The effect of Compound A (11-deoxy-13,14-dihydro-15-keto-16,16-difluoro-PGE1) on excisional wound healing was tested. A full-thickness excisional wound (1.5×1.5 cm) was made on the back of female diabetic (BKS.Cg-+Lepr^db/+Lepr^db/Jcl) mice at the age of 12 weeks. The excisional wound was covered with the perforated film dressing. Each test ointment was put into a 1-mL disposable polypropylene syringe to which a 21G hypodermic needle is attached, and 0.1 mL of the test ointment was applied to the wound by sticking the hypodermic needle into the film dressing, which covers the excisional wound. The application was performed once a day for 21 days starting from the day when the excisional wound was made; the day when the excisional wound was made was defined as Day 1. For histological examination, the skin including the excisional wound was obtained from animals treated with each test ointment for 6 days, and was served for immunostaining with antibody against Ki67, a marker protein of proliferating cells. The outline of each excisional wound was traced before application (Day 1) and Days 6, 8, 11, 13, 15, 18, 20, and 22 of administration. The traced excisional wound area was measured with an area-line meter. […]

[3] = Compound A 0.1 mg/kg orally twice a day for 5 days
[4] = Compound A 1 mg/kg orally twice a day for 5 days

SMILES: CCCCC(F)(F)C(=O)CCC1CCC(=O)C1CCCCCCC(=O)O (stereo not shown) [Compound A, 11-deoxy-13,14-dihydro-15-keto-16,16-difluoro-PGE1]
- Mean area of TH-positive fibers in the striatum compared to MPTP+Vehicle (control) group ([1]; 0.1 mg/kg and 1 mg/kg groups): significantly greater mean area of TH-positive fibers in the striatum
- Number of TH-positive immunostained cells in the substantia nigra, trend in words ([1]; 0.1 and 1 mg/kg orally): increased the number of TH-positive immunostained cells in the substantia nigra in a dose-dependent manner
- Area of TH-positive immunostained fibers in striatum, mean ± S.E. [1, 3]: 0.0465 ± 0.0102 mm2
- TH-positive immunostained cells in substantia nigra, mean ± S.E. [1, 3]: 35.2 ± 5.0 Number of cells
- Area of TH-positive immunostained fibers in striatum, mean ± S.E. [1, 4]: 0.0444 ± 0.0092 mm2
- TH-positive immunostained cells in substantia nigra, mean ± S.E. [1, 4]: 44.4 ± 5.0 Number of cells
- Skin wound healing, in words [2]: accelerated skin wound healing
